Measurements from patent publication US12522601B2, “1,3,4-oxadiazole derivative compounds as histone deacetylase 6 inhibitor, and the pharmaceutical composition comprising the same” (CHONG KUN DANG PHARMACEUTICAL CORP., priority 2020, dated 2026).
pIC50: −log10 of the molar value.

Assays:
human recombinant HDAC6 = target: T1, human recombinant HDAC6 (Homo sapiens, UniProt Q9UBN7); test: In vitro HDAC enzyme activity inhibition assay, HDAC6 (HDAC Fluorimetric Drug Discovery Kit); assay type: biochemical; conditions: for HDAC6 Selectivity (fold): HDAC6 versus HDAC1; for pIC50: human recombinant HDAC6, same protocol as the HDAC1 test
T1 construct: purchased Calbiochem Inc. 382180
T1 sequence (Q9UBN7 1-1215): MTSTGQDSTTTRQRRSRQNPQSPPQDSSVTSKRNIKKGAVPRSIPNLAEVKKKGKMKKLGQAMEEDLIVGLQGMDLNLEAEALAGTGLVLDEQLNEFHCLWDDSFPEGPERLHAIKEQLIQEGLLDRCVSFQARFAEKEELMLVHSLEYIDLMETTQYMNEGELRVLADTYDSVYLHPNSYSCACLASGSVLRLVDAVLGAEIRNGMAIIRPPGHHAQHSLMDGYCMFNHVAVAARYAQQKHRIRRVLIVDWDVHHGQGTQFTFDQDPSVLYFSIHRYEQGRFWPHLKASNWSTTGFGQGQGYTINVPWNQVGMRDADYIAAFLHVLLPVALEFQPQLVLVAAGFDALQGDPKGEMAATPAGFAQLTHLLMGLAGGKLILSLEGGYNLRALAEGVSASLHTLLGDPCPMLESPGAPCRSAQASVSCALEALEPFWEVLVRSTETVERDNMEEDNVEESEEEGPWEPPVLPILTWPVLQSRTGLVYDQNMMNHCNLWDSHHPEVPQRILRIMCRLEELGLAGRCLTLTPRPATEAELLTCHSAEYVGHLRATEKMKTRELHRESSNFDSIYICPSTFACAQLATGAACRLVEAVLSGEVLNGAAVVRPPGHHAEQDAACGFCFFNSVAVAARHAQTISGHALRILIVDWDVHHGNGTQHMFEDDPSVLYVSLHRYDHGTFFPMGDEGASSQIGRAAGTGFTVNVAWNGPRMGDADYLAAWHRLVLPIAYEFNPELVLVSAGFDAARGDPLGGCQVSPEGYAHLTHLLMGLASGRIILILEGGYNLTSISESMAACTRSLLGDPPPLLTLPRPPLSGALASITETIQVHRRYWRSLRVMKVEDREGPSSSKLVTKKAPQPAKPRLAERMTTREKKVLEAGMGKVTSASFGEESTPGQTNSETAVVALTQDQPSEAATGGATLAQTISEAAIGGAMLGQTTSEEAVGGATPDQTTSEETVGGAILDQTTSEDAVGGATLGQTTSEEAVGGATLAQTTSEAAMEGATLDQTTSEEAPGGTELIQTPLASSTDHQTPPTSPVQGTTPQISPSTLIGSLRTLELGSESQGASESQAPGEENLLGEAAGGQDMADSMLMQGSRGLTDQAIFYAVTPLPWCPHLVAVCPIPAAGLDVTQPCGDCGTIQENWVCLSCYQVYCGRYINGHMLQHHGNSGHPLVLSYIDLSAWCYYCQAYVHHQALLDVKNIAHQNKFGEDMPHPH
Procedure, shortened: (§1)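 Both HDAC1 and HDAC6 (human recombinant, 0.3 μg) tested identically: 10 μM fluorogenic Fluor de Lys-SIRT1 substrate, reaction 60 min at 30° C, developer added for 30 min. IC50 calculated from Ex 360/Em 460 signal over 5-fold serial dilutions.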

human recombinant HDAC1 = target: T2, human recombinant HDAC1 (Homo sapiens, UniProt Q13547); test: In vitro HDAC enzyme activity inhibition assay, HDAC1 (HDAC Fluorimetric Drug Discovery Kit); assay type: biochemical; conditions: human recombinant HDAC1, Fluor de Lys-SIRT1 substrate 10 μM, 30° C. for 60 minutes
T2 construct: purchased Enzo Life Sciences, Inc. BML-SE456
T2 sequence (Q13547 whole entry): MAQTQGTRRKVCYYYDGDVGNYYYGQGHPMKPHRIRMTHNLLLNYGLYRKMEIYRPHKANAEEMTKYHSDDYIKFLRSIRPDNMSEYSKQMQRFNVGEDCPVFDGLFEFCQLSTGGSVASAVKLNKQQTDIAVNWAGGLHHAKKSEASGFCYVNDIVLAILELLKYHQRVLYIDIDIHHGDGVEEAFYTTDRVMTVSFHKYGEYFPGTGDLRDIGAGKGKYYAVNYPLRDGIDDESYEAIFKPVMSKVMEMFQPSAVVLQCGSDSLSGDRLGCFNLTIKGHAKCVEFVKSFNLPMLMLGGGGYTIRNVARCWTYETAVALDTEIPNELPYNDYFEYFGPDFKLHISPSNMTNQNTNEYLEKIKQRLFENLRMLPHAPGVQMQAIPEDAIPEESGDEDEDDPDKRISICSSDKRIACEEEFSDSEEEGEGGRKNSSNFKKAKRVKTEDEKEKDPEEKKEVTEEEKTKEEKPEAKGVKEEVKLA
Procedure, shortened: as §1

| Compound | HDAC6 Selectivity (fold) (human recombinant HDAC6) | pIC50 (human recombinant HDAC6) | pIC50 (human recombinant HDAC1) |
| --- | --- | --- | --- |
| CCN1CCC(C(=O)N(Cc2cn3ccc(-c4nnc(C(F)F)o4)cc3n2)c2ccccc2)CC1 [Compound 4115, N-((7-(5-(difluoromethyl)-1,3,4-oxadiazol-2-yl)imidazo[1,2-a]pyridin-2-yl)methyl)-1-ethyl-N-phenylpiperidine-4-carboxamide] | 141 fold | 6.45 | < 4.30 |
| CC(CO)N1CCC(C(=O)N(Cc2cn3ccc(-c4nnc(C(F)F)o4)cc3n2)c2ccccc2)CC1 (stereo not drawn) [Compound 4117, N-((7-(5-(difluoromethyl)-1,3,4-oxadiazol-2-yl)imidazo[1,2-a]pyridin-2-yl)methyl)-1-(1-hydroxypropan-2-yl)-N-phenylpiperidine-4-carboxamide] | 133 fold | 6.42 | < 4.30 |
| O=C(C1CCN(C2CCC2)CC1)N(Cc1cn2ccc(-c3nnc(C(F)F)o3)cc2n1)c1ccccc1 [Compound 4118, 1-cyclobutyl-N-((7-(5-(difluoromethyl)-1,3,4-oxadiazol-2-yl)imidazo[1,2-a]pyridin-2-yl)methyl)-N-phenylpiperidine-4-carboxamide] | 151 fold | 6.48 | < 4.30 |
| O=C(C1CCN(C2CCCCC2)CC1)N(Cc1cn2ccc(-c3nnc(C(F)F)o3)cc2n1)c1ccccc1 [Compound 4119, 1-cyclohexyl-N-((7-(5-(difluoromethyl)-1,3,4-oxadiazol-2-yl)imidazo[1,2-a]pyridin-2-yl)methyl)-N-phenylpiperidine-4-carboxamide] | 124 fold | 6.40 | < 4.30 |
| O=C(C1CCN(C2CCOCC2)CC1)N(Cc1cn2ccc(-c3nnc(C(F)F)o3)cc2n1)c1ccccc1 [Compound 4120, N-((7-(5-(difluoromethyl)-1,3,4-oxadiazol-2-yl)imidazo[1,2-a]pyridin-2-yl)methyl)-N-phenyl-1-(tetrahydro-2H-pyran-4-yl)piperidine-4-carboxamide] | 98 fold | 6.29 | < 4.30 |
| O=C(C1CCN(C2CCC(F)(F)CC2)CC1)N(Cc1cn2ccc(-c3nnc(C(F)F)o3)cc2n1)c1ccccc1 [Compound 4121, 1-(4,4-difluorocyclohexyl)-N-((7-(5-(difluoromethyl)-1,3,4-oxadiazol-2-yl)imidazo[1,2-a]pyridin-2-yl)methyl)-N-phenylpiperidine-4-carboxamide] | 122 fold | 6.39 | < 4.30 |
| CC(=O)N1CCC(C(=O)N(Cc2cn3ccc(-c4nnc(C(F)F)o4)cc3n2)c2ccccc2)CC1 [Compound 4122, 1-acetyl-N-((7-(5-(difluoromethyl)-1,3,4-oxadiazol-2-yl)imidazo[1,2-a]pyridin-2-yl)methyl)-N-phenylpiperidine-4-carboxamide] | 142 fold | 6.45 | < 4.30 |
| O=C(CO)N1CCC(C(=O)N(Cc2cn3ccc(-c4nnc(C(F)F)o4)cc3n2)c2ccccc2)CC1 [Compound 4124, N-((7-(5-(difluoromethyl)-1,3,4-oxadiazol-2-yl)imidazo[1,2-a]pyridin-2-yl)methyl)-1-(2-hydroxyacetyl)-N-phenylpiperidine-4-carboxamide] | 147 fold | 6.47 | < 4.30 |
| O=C(C1CCC1)N1CCC(C(=O)N(Cc2cn3ccc(-c4nnc(C(F)F)o4)cc3n2)c2ccccc2)CC1 [Compound 4125, 1-(cyclobutanecarbonyl)-N-((7-(5-(difluoromethyl)-1,3,4-oxadiazol-2-yl)imidazo[1,2-a]pyridine-2-yl)methyl)-N-phenylpiperidine-4-carboxamide] | 152 fold | 6.48 | < 4.30 |
| O=C(C1COC1)N1CCC(C(=O)N(Cc2cn3ccc(-c4nnc(C(F)F)o4)cc3n2)c2ccccc2)CC1 [Compound 4126, N-((7-(5-(difluoromethyl)-1,3,4-oxadiazol-2-yl)imidazo[1,2-a]pyridin-2-yl)methyl)-1-(oxetan-3-carbonyl)-N-phenylpiperidine-4-carboxamide] | 124 fold | 6.39 | < 4.30 |
| O=C(C1CCN(C(=O)C(F)(F)F)CC1)N(Cc1cn2ccc(-c3nnc(C(F)F)o3)cc2n1)c1ccccc1 [Compound 4127, N-((7-(5-(difluoromethyl)-1,3,4-oxadiazol-2-yl)imidazo[1,2-a]pyridin-2-yl)methyl)-N-phenyl-1-(2,2,2-trifluoroacetyl)piperidine-4-carboxamide] | 82 fold | 6.21 | < 4.30 |
| COC(=O)N1CCC(C(=O)N(Cc2cn3ccc(-c4nnc(C(F)F)o4)cc3n2)c2ccccc2)CC1 [Compound 4129, methyl 4-(((7-(5-(difluoromethyl)-1,3,4-oxadiazol-2-yl)imidazo[1,2-a]pyridin-2-yl)methyl)(phenyl)carbamoyl)piperidine-1-carboxylate] | 125 fold | 6.40 | < 4.30 |
| CN(C)C(=O)N1CCC(C(=O)N(Cc2cn3ccc(-c4nnc(C(F)F)o4)cc3n2)c2ccccc2)CC1 [Compound 4130, N4-((7-(5-(difluoromethyl)-1,3,4-oxadiazol-2-yl)imidazo[1,2-a]pyridin-2-yl)methyl)-N1,N1-dimethyl-N4-phenylpiperidine-1,4-dicarboxamide] | 133 fold | 6.43 | < 4.30 |

These reach a higher pIC50 (human recombinant HDAC6). Values come first.

| HDAC6 Selectivity (fold) (human recombinant HDAC6) | pIC50 (human recombinant HDAC6) | pIC50 (human recombinant HDAC1) | Compound |
| --- | --- | --- | --- |
| 464 fold | 6.97 | < 4.30 | O=C(N1CCN(c2ncccn2)CC1)N(Cc1cn2ccc(-c3nnc(C(F)F)o3)cc2n1)c1cccc(F)c1 [Compound 4101, N-((7-(5-(difluoromethyl)-1,3,4-oxadiazol-2-yl)imidazo[1,2-a]pyridin-2-yl)methyl)-N-(3-fluorophenyl)-4-(pyrimidin-2-yl)piperazine-1-carboxamide] |
| 164 fold | 6.52 | < 4.30 | O=C(C1COC1)N1CCN(C(=O)N(Cc2cn3ccc(-c4nnc(C(F)F)o4)cc3n2)c2ccccc2)CC1 [Compound 4102, N-((7-(5-(difluoromethyl)-1,3,4-oxadiazol-2-yl)imidazo[1,2-a]pyridin-2-yl)methyl)-4-(oxetan-3-carbonyl)-N-phenylpiperazine-1-carboxamide] |
| 249 fold | 6.70 | < 4.30 | O=C(C1COC1)N1CCN(C(=O)N(Cc2cn3ccc(-c4nnc(C(F)F)o4)cc3n2)c2cccc(F)c2)CC1 [Compound 4103, N-((7-(5-(difluoromethyl)-1,3,4-oxadiazol-2-yl)imidazo[1,2-a]pyridin-2-yl)methyl)-N-(3-fluorophenyl)-4-(oxetan-3-carbonyl)piperazine-1-carboxamide] |
| 159 fold | 6.50 | < 4.30 | CC(C)N1CCC(C(=O)N(Cc2cn3ccc(-c4nnc(C(F)F)o4)cc3n2)c2ccccc2)CC1 [Compound 4116, N-((7-(5-(difluoromethyl)-1,3,4-oxadiazol-2-yl)imidazo[1,2-a]pyridin-2-yl)methyl)-1-isopropyl-N-phenylpiperidine-4-carboxamide] |
| 163 fold | 6.51 | < 4.30 | CCC(=O)N1CCC(C(=O)N(Cc2cn3ccc(-c4nnc(C(F)F)o4)cc3n2)c2ccccc2)CC1 [Compound 4123, N-((7-(5-(difluoromethyl)-1,3,4-oxadiazol-2-yl)imidazo[1,2-a]pyridin-2-yl)methyl)-N-phenyl-1-propionylpiperidine-4-carboxamide] |
| 159 fold | 6.50 | < 4.30 | CS(=O)(=O)N1CCC(C(=O)N(Cc2cn3ccc(-c4nnc(C(F)F)o4)cc3n2)c2ccccc2)CC1 [Compound 4128, N-((7-(5-(difluoromethyl)-1,3,4-oxadiazol-2-yl)imidazo[1,2-a]pyridin-2-yl)methyl)-1-(methylsulfonyl)-N-phenylpiperidine-4-carboxamide] |
